# Assay results published in patent US12496287B2, “Compositions and methods for treating macrophage activation syndrome” (THE CHILDREN'S HOSPITAL OF PHILADELPHIA, priority 2019, dated 2025).
# Counter-ions that a name gives are not always drawn.
# T1: HO-1 (Mus musculus, UniProt P14901)
# T1 construct: endogenous in cells; host or cells: mouse bone marrow derived macrophages (BMDM)
# T1 sequence (P14901 1-289): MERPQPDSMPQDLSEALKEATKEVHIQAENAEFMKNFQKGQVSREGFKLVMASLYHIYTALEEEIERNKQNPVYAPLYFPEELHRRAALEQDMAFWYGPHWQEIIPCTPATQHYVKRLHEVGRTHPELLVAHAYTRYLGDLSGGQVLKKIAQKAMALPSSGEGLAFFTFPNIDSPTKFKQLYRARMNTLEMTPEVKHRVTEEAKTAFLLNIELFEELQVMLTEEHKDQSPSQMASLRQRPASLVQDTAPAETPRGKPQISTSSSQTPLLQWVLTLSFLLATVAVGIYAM
# Legend:
# Nrf2/HO-1 = experiment: MMF induction of Nrf2 and HO-1 in macrophages of injected mice (Western blot); type: in vivo, mouse
# Experimental: MAS was induced by repeated activation of TLR9 as described (Behrens, et al. (2011) J. Clin. Invest., 121(6):2264-77; Weaver, et al. (2016) Proc. Natl. Acad. Sci., 113(39):10944-9). Briefly, 8-week old mice were injected with five doses of PBS or 50 μg of CpG1826 intraperitoneally every other day for 9 days, while MMF (cat no: 4511, TOCRIS (Bristol, UK)) in DMSO was injected at 45 mg/Kg body weight based on standard dosing used in other murine studies (Cho, et al. (2015) J. Neuroinflammation 12:239; Yao, et al. (2016) Transl. Stroke Res., 7(6):535-47), every day once in the morning and once in the evening. The control group received DMSO instead of MMF. […] Spleens and livers were harvested and were formalin fixed followed by paraffin embedment for tissue sectioning and slide preparation for histology and immunohistochemistry (IHC). To obtain single suspension of spleen leukocytes, spleens at 37° C. were disrupted and incubated in the presence of DNAase and collagenase, followed by filtering over 70-μm strainers and RBC lysis. The cells were counted and then adhered for 2 hours on petri dishes to obtain plastic adherent macrophages.
# Protein samples (10-12 μg) were resolved by SDS-PAGE on 4-12% Bis-Tris gels (Invitrogen), electrotransferred to nitrocellulose membranes (Cat no. 10484060, Bio-Rad (Hercules, CA)), and assessed for the immunosignal of proteins using the antibodies against HO-1 (cat no. ADI-SPA-896, Enzo (Farmingdale, NY)), Nrf2 (Cat no. 12721, Cell Signaling (Danvers, MA)), Erk (Cat no. 4695, Cell signaling), pErk (Cat no. 4379, Cell Signaling), Cyclophilin B (CyPB, Cat no. PA1-027A, ThermoFisher Scientific), β tubulin (Cat no. 2146, Cell Signaling), β actin (Cat No. 66009-1-Ig, Proteintech (Rosemont, IL)), Calnexin (Cat no. ab22595, abcam (Cambridge, UK) and Histone 3 (Cat no. 4499, Cell Signaling). Fluorescence tagged respective secondary antibodies obtained from Li-COR (Lincoln, Neb.)—Goat-anti-Rabbit-antibody (IRDye® 800CW), or Donkey-anti-mouse-antibody (IRDye® 800CW) or Donkey anti-Mouse IgG (IRDye® 680RD) were then used. […]
# TLR9-MAS murine model = TLR9-MAS murine model (repeated CpG), MMF treatment, C57BL/6 mice; type: in vivo, mouse
# Experimental: (§1) MAS was induced by repeated activation of TLR9 as described (Behrens, et al. (2011) J. Clin. Invest., 121(6):2264-77; Weaver, et al. (2016) Proc. Natl. Acad. Sci., 113(39):10944-9). Briefly, 8-week old mice were injected with five doses of PBS or 50 μg of CpG1826 intraperitoneally every other day for 9 days, while MMF (cat no: 4511, TOCRIS (Bristol, UK)) in DMSO was injected at 45 mg/Kg body weight based on standard dosing used in other murine studies (Cho, et al. (2015) J. Neuroinflammation 12:239; Yao, et al. (2016) Transl. Stroke Res., 7(6):535-47), every day once in the morning and once in the evening. The control group received DMSO instead of MMF. On day-10 mice were euthanized 24 hours after the last MMF injection, bled terminally to collect blood for complete blood count (CBC) and differential count, and serum for cytokine analysis by ELISA. Spleens and livers were harvested and were formalin fixed followed by paraffin embedment for tissue sectioning and slide preparation for histology and immunohistochemistry (IHC). To obtain single suspension of spleen leukocytes, spleens at 37° C. were disrupted and incubated in the presence of DNAase and collagenase, followed by filtering over 70-μm strainers and RBC lysis. The cells were counted and then adhered for 2 hours on petri dishes to obtain plastic adherent macrophages. TLR9 activation induced cytokines from cells supernatants and serum were measured by using the ELISA kits from BD OptEIA™ (Cat nos. IL-12: 555256, IL-10: 555252, TNFα: 555268 and IL-6: 555240; Franklin Lakes, NJ).
# TLR9-MAS = TLR9-MAS in HMOX1^WT and HMOX1^fl/fl mice, MMF treatment; type: in vivo, mouse
# Excerpt: C57BL/6 (WT) and LysM-Cre mice were purchased from The Jackson Laboratory (Bar Harbor, ME). HMOX1^fl/fl mice were crossbred with LysM-Cre mice and genotyped regularly to obtain mice with deletion of the HO-1 gene in myeloid lineage and are designated as: HMOX1^WT (intact HO-1), HMOX1^WT/fl (x LysM-cre, HO-1-haplodeficient,), and HMOX1^fl/fl (x LysM-Cre, complete HO-1-deficiency).
# as §1, with “macrophages.” for “macrophages. TLR9 activation induced cytokines from cells supernatants and serum were measured by using the ELISA kits from BD OptEIA™ (Cat nos. IL-12: 555256, IL-10: 555252, TNFα: 555268 and IL-6: 555240; Franklin Lakes, NJ).”
# Slides from paraffin-embedded tissue sections were stained with hematoxylin and eosin or were immune-stained for HO-1 (cat no. ADI-SPA-896, Enzo), followed by nuclear stain using prolong gold antifade reagent with Dapi (P36931, Invitrogen (Carlsbad, CA)). Images were acquired on an Eclipse 90i microscope (Nikon (Melville, NY)) using NIS-ELEMENTS software.
# (§2) TLR9 activation induced cytokines from cells supernatants and serum were measured by using the ELISA kits from BD OptEIA™ (Cat nos. IL-12: 555256, IL-10: 555252, TNFα: 555268 and IL-6: 555240; Franklin Lakes, NJ).
# HO-1 [1] = molecular target: T1, HO-1; experiment: Cytokines in supernatants of CpG-stimulated BMDMs treated with ZnPP and/or CORM2 (ELISA); type: cell-based
# Experimental: Bone marrow (BM) was extracted from the hind limbs of mice and filtered over a 70-μm strainer to obtain a single cell suspension, followed by RBC lysis. Bone marrow derived macrophages (BMDM) were derived by culture in M-CSF-enriched media of L929 cells. RAW264.7 cells were obtained from ATCC (Manassas, VA). Class B CpG1826 oligonucleotide was synthesized by Integrated DNA Technologies (Coralville, IA). Macrophages were treated with CpG (1 μg/ml) for 18 to 20 hours for cytokine analysis in cell supernatant, and for 0 to 2 hours for analysis of protein expression level by Western blot treated as indicated.
# as §2
# [2] = low dose CO (100-125 ppm); patients with idiopathic pulmonary fibrosis or COPD; cited from earlier work
# HO-1 [3] = experiment: Splenic HO-1 expression in vivo after repeated CpG treatment (IHC, Western blot); design: species or system mouse; settings: IFNγ alone, intraperitoneally, IFNγ-/- mice
# Experimental: MAS was induced by repeated activation of TLR9 as described (Behrens, et al. (2011) J. Clin. Invest., 121(6):2264-77; Weaver, et al. (2016) Proc. Natl. Acad. Sci., 113(39):10944-9). Briefly, 8-week old mice were injected with five doses of PBS or 50 μg of CpG1826 intraperitoneally every other day for 9 days, while MMF (cat no: 4511, TOCRIS (Bristol, UK)) in DMSO was injected at 45 mg/Kg body weight based on standard dosing used in other murine studies (Cho, et al. (2015) J. Neuroinflammation 12:239; Yao, et al. (2016) Transl. Stroke Res., 7(6):535-47), every day once in the morning and once in the evening. The control group received DMSO instead of MMF. On day-10 mice were euthanized 24 hours after the last MMF injection, bled terminally to collect blood for complete blood count (CBC) and differential count, and serum for cytokine analysis by ELISA. Spleens and livers were harvested and were formalin fixed followed by paraffin embedment for tissue sectioning and slide preparation for histology and immunohistochemistry (IHC). To obtain single suspension of spleen leukocytes, spleens at 37° C. were disrupted and incubated in the presence of DNAase and collagenase, followed by filtering over 70-μm strainers and RBC lysis. The cells were counted and then adhered for 2 hours on petri dishes to obtain plastic adherent macrophages. […]
# [4] = spleen plastic adherent macrophages, MMF i.p. every 12 hours, 3 doses, 4 hours after last dose
# [5] = day 10, MMF twice a day, CpG every other day
molecule,measurement,setting,value
"COC(=O)/C=C/C(=O)O [MMF, monomethyl fumarate]",HO-1 expression in splenic and peritoneal macrophages,Nrf2/HO-1; MMF treatment,increased
same,HO-1 immunosignal relative to DMSO control,Nrf2/HO-1; [4],significantly increased
same,Nrf2 immunosignal relative to DMSO control,Nrf2/HO-1; [4],significantly increased
same,cellularity in spleen,TLR9-MAS murine model; MMF + CpG,reduced cellularity
same,organomegaly of liver,TLR9-MAS murine model; MMF + CpG,reduced
same,organomegaly of spleen,TLR9-MAS murine model; MMF + CpG,reduced
same,serum IL-10,"TLR9-MAS murine model; day 10, MMF 45 mg/Kg twice a day, CpG every other day",significantly higher
same,erythrocyte count in blood,"TLR9-MAS murine model; day 10, MMF + CpG",corrected
same,platelet count in blood,"TLR9-MAS murine model; day 10, MMF + CpG",corrected
same,serum IFNγ,TLR9-MAS murine model; [5],drop
same,serum IL-12,TLR9-MAS murine model; [5],drop
same,serum IL-10 elevation,TLR9-MAS; CpG treated HMOX1^WT mice,3 fold
same,serum IL-10 elevation effect,TLR9-MAS; CpG treated HMOX1^fl/fl mice,completely lost
same,serum IFNγ,TLR9-MAS; CpG treated HMOX1 mice,unaffected
same,serum IL-12,"TLR9-MAS; CpG treated HMOX1 mice, HO-1 independent",slightly reduced
same,recovery from anemia (RBC),TLR9-MAS; HMOX1^WT mice,almost complete recovery
same,recovery from thrombocytopenia (platelets),TLR9-MAS; HMOX1^WT mice,almost complete recovery
same,hepatosplenomegaly,TLR9-MAS; HMOX1^fl/fl mice,partially protected
same,recovery from anemia (RBC),TLR9-MAS; HMOX1^fl/fl mice,partial recovery
same,recovery from thrombocytopenia (platelets),TLR9-MAS; HMOX1^fl/fl mice,partial recovery
same,lobular inflammatory score (liver),TLR9-MAS; both WT and HMOX1^fl/fl mice,reduce
same,portal inflammatory score (liver),TLR9-MAS; both WT and HMOX1^fl/fl mice,reduce
same,histologic evidence of endothelial activation,TLR9-MAS; independent of mouse genotype,reduce
"C=CC1=C(C)c2cc3[n-]c(cc4nc(cc5[n-]c(cc1n2)c(C)c5C=C)C(C)=C4CCC(=O)O)c(CCC(=O)O)c3C.[Zn+2] [ZnPP, zinc protoporphyrin]",IL-6 in response to CpG,"HO-1 [1]; ZnPP 3 μM, BMDMs",increased levels
same,TNFα in response to CpG,"HO-1 [1]; ZnPP 3 μM, BMDMs",increased levels
same,production of IL-10,"HO-1 [1]; ZnPP 3 μM, BMDMs stimulated with CpG",substantially reduced
same,IL-10,"HO-1 [1]; ZnPP, CpG-treated HMOX1^WT BMDM",blocked
same,residual IL-10,"HO-1 [1]; ZnPP, CpG-treated HMOX1^fl/fl BMDM",without showing any effect
"[C-]#[O+].[C-]#[O+].[C-]#[O+].[C-]#[O+].[C-]#[O+].[C-]#[O+].[Cl][Ru][Cl].[Cl][Ru][Cl] [CORM2, carbon monoxide-releasing molecule [CORM] 2]",IL-10,HO-1 [1]; CORM2 in BMDM not inhibited by ZnPP or genetically sufficient for HO-1,no additional effect
same,IL-10,HO-1 [1]; CORM2 in HMOX1^fl/fl BMDMs,rescue
same,IL-10 levels,"HO-1 [1]; CORM2 in ZnPP treated BMDMs, CpG 1 μg/ml",restored IL-10 levels to normal
"[C-]#[O+] [CO, carbon monoxide]",tolerability,[2],tolerated
"IFNγ: interferon gamma added back intraperitoneally to IFNγ-/- mice (protein, UniProt P01580 23-155, looked up) Interferon gamma: HGTVIESLESLNNYFNSSGIDVEEKSLFLDIWRNWQKDGDMKILQSQIISFYLRLFEVLKDNQAISNNISVIESHLITTFFSNSKAKKDAFMSIAKFEVNNPQVQRQAFNELIRVVHQLLPESSLRKRKRSRC",HO-1 induction in spleen,HO-1 [3],did not induce HO-1
